These results are taken from ChEMBL document CHEMBL1201862, “PubChem BioAssay data set” (2004).

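Protocol summary: plate cells (96-well), add compound at 5 concentrations, incubate 48 h, interpolate endpoints linearly. GI50: concentration for 50% inhibition of growth.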 Activity calls are given as the source filed them. No stated cut-off is given here; in the data, active = GI50 up to about 1.1 µM and inactive = higher. Where a SMILES comes first, the peptide text is derived from it. [ ]: non-standard residue; d: D form. The star is where a group is joined. NMeF = CN[C@@H](Cc1ccccc1)C(=O)O; NMeV = CN[C@H](C(=O)O)C(C)C; Boc = CC(C)(C)OC(=O)*; OBn = c1ccc(CO*)cc1 Bounds are passed on as bounds.

Common to all, as to test: DTP human tumour cell line panel, 48 h
Test [1] relates to HOP-18.
Test [2] concerns DMS-273.
Test [3] relates to RXF 631.
The test system of test [4] is DMS-114.
Test [5] relates to LXFL 529.
Test [6] relates to XF498.
Test [7] relates to SNB-78.
Test [8] concerns DLD-1.
The subject of test [9] is KM-20L2.

Turning to `Cn1c2c(c3ccccc31)C1CCCCCCC1C1C(=O)OC(=O)C21` (stereo unspecified), the GI50 in [1] was > 100 µM (inactive); in test [2], 20 µM (inactive); in test [3], 33.3 µM (inactive); in [4] it was 29.1 µM (inactive); in test [5], 39.7 µM (inactive); in [6], 43.6 µM (inactive). In addition, the GI50 was > 100 µM (inactive) in test [7] and 33.6 µM (inactive) in test [8].
`OC12c3ccccc3C3CCC4(OCCO4)C3C1c1ccccc12` (stereo unspecified): the GI50 was > 100 µM (inactive) in [1]; > 100 µM (inactive) in test [2]; 53.6 µM (inactive) in test [4]; > 100 µM (inactive) in test [5]; > 100 µM (inactive) in [9]; > 100 µM (inactive) in test [7]. Besides, the GI50 in [8] is > 100 µM (inactive).
Consider `O=C(CCN1CCCCC1)Nc1ccc2c(c1)C(=O)c1ccc(NC(=O)CCN3CCCCC3)cc1C2=O`, for which the GI50 in [1] was 17 µM (inactive); in test [2] it was 1.71 µM (inactive); in [4] it was 17.6 µM (inactive); in [5], 1.88 µM (inactive); in test [9], 18 µM (inactive); in test [7] it was 15.3 µM (inactive). For the same molecule, in test [8], the GI50 is 2.92 µM (inactive).
On to `CC(C)[C@@H](C(=O)N1CCC[C@H]1C(=O)OCc1ccccc1)N(C)C(=O)[C@H](C(C)C)N(C)C(=O)[C@H](Cc1ccccc1)N(C)C(=O)[C@H](NC(=O)OC(C)(C)C)C(C)C` (Boc-[dV][NMeF][NMeV][NMeV]P-OBn), for which the GI50 is > 100 µM (inactive) in test [1]; 24.3 µM (inactive) in test [2]; 19.6 µM (inactive) in test [4]; 22.2 µM (inactive) in [5]; 25.4 µM (inactive) in test [8].
On to `O=C(O)C1=C(C(=O)O)Oc2ccccc2O1`, for which the GI50 in test [1], in test [2], in [4], in test [5], in test [9] and in test [6] was > 100 µM (inactive) each time. In addition, the GI50 in test [7] and in [8] was > 100 µM (inactive) each time.
As for `CC(=O)OC(C)(C)[C@@H]1CC[C@]2(C)/C=C/[C@H](C)C[C@@H](O)C3=C(C)C[C@@H](O3)C12` (stereo partly specified), the GI50 in [1], in [2], in test [3], in test [4], in [5] and in test [9] was > 100 µM (inactive) in each case. Further, the GI50 in test [7] and in test [8] was > 100 µM (inactive) in each case.
In the case of `CC(C)(Oc1ccc(C(=O)c2ccc(Cl)cc2)cc1Cl)C(=O)Nc1c(Cl)cccc1Cl`, the GI50 in test [1] is > 100 µM (inactive); in test [2] it was > 100 µM (inactive); in test [4] it was 8.75 µM (inactive); in test [5], > 100 µM (inactive); in test [9], > 100 µM (inactive); in [6] it was > 100 µM (inactive). The GI50 in test [7] and in [8] was > 100 µM (inactive) throughout.
`O=c1sc(-c2nc3ccccc3[nH]2)c(/N=C/c2ccccc2)n1-c1ccccc1`: the GI50 in test [1] was 67 µM (inactive); in [2] it was 28.4 µM (inactive); in [5], 30.3 µM (inactive); in test [6], 31.2 µM (inactive); in test [7], 35.5 µM (inactive); in [8], > 100 µM (inactive).
Regarding `Cc1nc(-n2nc(-c3ccccc3)cc2-c2ccccc2)sc1C(=O)/C=C/c1cccc([N+](=O)[O-])c1`, the GI50 in test [1] is 12.1 µM (inactive); in [2] it was 26.5 µM (inactive); in [4], 11.6 µM (inactive); in test [9], 17.8 µM (inactive); in test [7], 52.7 µM (inactive); in [8] it was 12 µM (inactive).
On to `CN(C(=O)c1cccs1)C(=S)N1CCN(c2ccccn2)CC1`, for which the GI50 in test [1], in [2], in test [4], in [5], in test [9] and in test [6] was > 100 µM (inactive) each time. For the same molecule, the GI50 in test [7] and in test [8] was > 100 µM (inactive) each time.
In the case of `O=C1Cc2nc(CO)c(CO)c(CO)c2CO1`, the GI50 in test [1], in [2], in [4], in test [5], in [9] and in test [7] was > 100 µM (inactive) each time. In addition, the GI50 in [8] is > 100 µM (inactive).
For the molecule `CC1C(=O)O[C@H]2C1CC[C@@]1(C)[C@H](O)CC[C@@]13C[C@]2(O)OO3` (stereo partly specified), the GI50 in test [1], in test [2], in test [4], in [5], in test [9] and in [8] was > 100 µM (inactive) throughout.
`COc1ccc(CNc2cnc3ccc(N)cc3n2)cc1OC`: the GI50 in [1] was 0.548 µM (active); in test [2], 41.3 µM (inactive); in [4], 47.3 µM (inactive); in test [6] it was > 100 µM (inactive); in test [7], > 100 µM (inactive); in test [8], > 100 µM (inactive).
As for `C=CCC(N(C)C(=O)[C@H](Cc1ccccc1)NC(=O)OCc1ccccc1)P(=O)(Oc1ccccc1)Oc1ccccc1` (stereo partly specified), the GI50 in test [2] was > 100 µM (inactive); in [4], 5.62 µM (inactive); in test [5], 6.79 µM (inactive); in [9], > 100 µM (inactive); in test [6] it was > 100 µM (inactive); in [7], > 100 µM (inactive). The GI50 in test [8] was > 100 µM (inactive).
Turning to `CN(C)c1ccc(/C=C/c2ccc(/C=C/c3ccc(N(C)C)cc3)cc2)cc1`, the GI50 in test [1] is > 100 µM (inactive); in test [2], > 100 µM (inactive); in test [3] it was > 100 µM (inactive); in [5] it was 75.9 µM (inactive); in [9] it was > 100 µM (inactive); in test [7], > 100 µM (inactive). For the same molecule, the GI50 in test [8] is 33.6 µM (inactive).
As for `CC1C[C@@]2(c3ccccc3)C(=O)CCC[C@H]2N1` (stereo partly specified), the GI50 in test [2], in [4], in test [5], in test [9], in test [7] and in [8] was > 100 µM (inactive) throughout.
For `CN(C)C(=S)NC(=S)Nc1ccc2ccccc2c1`, the GI50 in test [2] is 1.67 µM (inactive); in [5] it was 2.07 µM (inactive); in test [9], 10 µM (inactive); in test [6] it was 16.1 µM (inactive); in test [7], 23.7 µM (inactive).
Turning to `CC(=O)c1ccc(N2C(=O)C3c4[nH]c5ccccc5c4C4CCC(C(C)(C)C)CC4C3C2=O)cc1` (stereo unspecified), the GI50 in test [1] is 91.6 µM (inactive); in test [2], 17.7 µM (inactive); in [4], 23.1 µM (inactive); in test [5], 29.3 µM (inactive); in [9], 18.7 µM (inactive); in test [7], 19.6 µM (inactive). The GI50 in test [8] was 33.2 µM (inactive).
Take `CN(C)C(=O)Oc1c(-c2ccccc2)c(=O)n2c3ccccc3n3c(=O)n(C)c(=O)c1c23`: the GI50 in test [1], in test [2], in test [3], in [4], in test [5] and in [6] was > 100 µM (inactive) each time. In addition, the GI50 in test [7] and in test [8] was > 100 µM (inactive) throughout.
For `C/C(=N\NC(=O)CC(=O)Nc1ccc(C)cc1)c1cc2ccccc2oc1=O`, the GI50 was 68.2 µM (inactive) in [1]; > 100 µM (inactive) in test [2]; > 100 µM (inactive) in test [4]; > 100 µM (inactive) in test [9]; 1.67 µM (inactive) in test [6]; > 100 µM (inactive) in test [8].
In the case of `CCOC(=O)C1COc2cc(-c3cc(=O)c4ccccc4o3)ccc2O1` (stereo unspecified), the GI50 is > 100 µM (inactive) in test [2]; 42.6 µM (inactive) in test [4]; 65.2 µM (inactive) in test [5]; > 100 µM (inactive) in [9]; 30.6 µM (inactive) in test [6]; 51.1 µM (inactive) in test [7]. For the same molecule, the GI50 in test [8] is 36.1 µM (inactive).
Take `CN(CCS(=O)(=O)N1C(=O)C2CCCN2C(=O)[C@@H]1Cc1ccccc1)C(=O)OCc1ccccc1` (stereo partly specified): the GI50 in [1] was > 100 µM (inactive); in test [3], 56.2 µM (inactive); in test [4] it was 59.6 µM (inactive); in test [5] it was 45.4 µM (inactive); in [9], 61.8 µM (inactive); in test [7], 92.7 µM (inactive). Moreover, the GI50 in [8] is > 100 µM (inactive).
As to `Cc1c(C(=O)CC(=O)C(=O)Nc2cccc(C(F)(F)F)c2)[n+]([O-])c2ccccc2[n+]1[O-]`, the GI50 in test [1] is 11.2 µM (inactive); in test [2] it was 3.41 µM (inactive); in [3], 2.84 µM (inactive); in test [4], 1.92 µM (inactive); in [5], 4.02 µM (inactive); in test [9] it was 3.8 µM (inactive). In addition, the GI50 in [7] is 6.79 µM (inactive).
As to `Cc1cc(N(CCC#N)CCC#N)ccc1CC1N=C(c2ccccc2)OC1=O` (stereo unspecified), the GI50 in test [2], in test [3], in [4], in [5], in test [9] and in test [6] was > 100 µM (inactive) in each case. The GI50 in [8] was > 100 µM (inactive).
For `O=C(COc1ccc(Br)cc1Br)N1N=C(c2ccc([N+](=O)[O-])o2)CC1(O)c1ccccc1` (stereo unspecified), the GI50 in [1] was 8.75 µM (inactive); in [2] it was 12.8 µM (inactive); in [4], 6.11 µM (inactive); in test [5], 8.73 µM (inactive); in test [9], 17.9 µM (inactive); in test [7], 27.2 µM (inactive). The GI50 in test [8] is 10.7 µM (inactive).

As a reminder, the GI50 is the concentration at which growth is held to half of that of the control.
